Tests used:
[1] = target: T1, human recombinant kinase full-length AKT1 E17K (Homo sapiens, UniProt P31749, E17K); experiment: AKT1 E17K kinase assay (TR-FRET, Lance); assay type: biochemical; conditions: 0.6 nM AKT1 E17K, 50 nM Ulight-CREBtide, either 50 μM ATP or 2 mM ATP, 60 min at RT
T1 construct: Purified human recombinant kinase full-length AKT1 E17K was expressed in insect cells; made in house; host or cells: insect cells
Method in brief: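 Full-length AKT1 E17K from insect cells, PDPK1-activated, at 0.6 nM with 50 nM Ulight-CREBtide and 50 μM or 2 mM ATP, pH 7.5, 1% DMSO. Enzyme and compound preincubated 15 min, reaction run 60 min at RT; Eu-anti-phospho-CREB (Ser133) TR-FRET 665/620 ratio, 10-point curve, IC50 by 4-parameter fit.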

[2] = target: T2, human recombinant kinase full-length wildtype AKT1 (Homo sapiens, UniProt P31749); experiment: AKT1 kinase assay (wildtype, TR-FRET, Lance); assay type: biochemical; conditions: 0.6 nM wildtype AKT1, 50 nM Ulight-CREBtide, either 50 μM ATP or 2 mM ATP, 60 min at RT
T2 construct: Purified human recombinant kinase full-length wildtype AKT1 was expressed in insect cells; made in house; host or cells: insect cells
Method in brief: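 Insect-cell-expressed full-length human AKT1, PDPK1-activated (0.6 nM), preincubated with compound 15 min at RT, then reacted 60 min at RT with 50 nM ULight-CREBtide and 50 μM or 2 mM ATP (pH 7.5, 1% DMSO). Phospho-CREBtide read by Eu-anti-phospho-Ser133 TR-FRET (665/620 ratio); IC50 from 10-point 4-parameter fit.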

T2 sequence (P31749 whole entry): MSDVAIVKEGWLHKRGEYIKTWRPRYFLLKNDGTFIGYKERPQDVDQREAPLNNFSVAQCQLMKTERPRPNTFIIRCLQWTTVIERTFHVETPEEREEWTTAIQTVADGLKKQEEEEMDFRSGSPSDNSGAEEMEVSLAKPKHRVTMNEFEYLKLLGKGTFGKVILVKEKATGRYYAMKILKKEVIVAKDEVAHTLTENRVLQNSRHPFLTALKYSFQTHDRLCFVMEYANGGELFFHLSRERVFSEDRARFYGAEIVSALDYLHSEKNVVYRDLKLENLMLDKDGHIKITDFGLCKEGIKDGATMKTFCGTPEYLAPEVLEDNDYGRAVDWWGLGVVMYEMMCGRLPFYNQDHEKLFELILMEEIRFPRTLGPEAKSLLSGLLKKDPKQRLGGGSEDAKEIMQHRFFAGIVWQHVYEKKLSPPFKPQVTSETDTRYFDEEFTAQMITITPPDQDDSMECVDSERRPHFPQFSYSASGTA
T1 sequence (P31749 whole entry E17K): as the sequence (P31749 whole entry) above, with E17K counted along it

Compound | IC50 [1] | IC50 [2]
Cc1nc(NC(=O)[C@H]2CC[C@H](C(=O)O)CC2)ccc1-n1c(-c2cccnc2N)nc2ccc(-c3ccccc3)nc21 [Compound I-118, (1r,4r)-4-((5-(2-(2-aminopyridin-3-yl)-5-phenyl-3H-imidazo[4,5-b]pyridin-3-yl)-6-methylpyridin-2-yl)carbamoyl)cyclohexane-1-carboxylic acid] | < 0.5 µM | < 20 µM
Nc1ncccc1-c1nc2ccc(C3CCCCC3)nc2n1-c1ccc(NC(=O)[C@H]2CC[C@H](C(=O)O)CC2)nc1 [Compound I-119, (1r,4r)-4-((5-(2-(2-aminopyridin-3-yl)-5-cyclohexyl-3H-imidazo[4,5-b]pyridin-3-yl)pyridin-2-yl)carbamoyl)cyclohexane-1-carboxylic acid] | 0.5 to 2 µM | < 20 µM
Nc1ncccc1-c1nc2ccc(C3CCCC3)nc2n1-c1ccc(NC(=O)[C@H]2CC[C@H](C(=O)O)CC2)nc1 [Compound I-120, (1r,4r)-4-((5-(2-(2-aminopyridin-3-yl)-5-cyclopentyl-3H-imidazo[4,5-b]pyridin-3-yl)pyridin-2-yl)carbamoyl) cyclohexane-1-carboxylic acid] | 0.5 to 2 µM | < 20 µM
Cc1nc(N[C@H]2CC[C@H](C(=O)O)CC2)ccc1-n1c(-c2cccnc2N)nc2ccc(-c3ccccc3)nc21 [Compound I-121, (1r,4r)-4-((5-(2-(2-aminopyridin-3-yl)-5-phenyl-3H-imidazo[4,5-b]pyridin-3-yl)-6-methylpyridin-2-yl)amino)cyclohexane-1-carboxylic acid] | < 0.5 µM | < 20 µM

Now from value to compound:

IC50 [1] | IC50 [2] | Compound
< 0.5 µM | < 20 µM | NC(=O)N1CCC(C(=O)Nc2ccc(-n3c(-c4cccnc4N)nc4ccc(-c5ccccc5)nc43)cn2)CC1 [Compound I-122, N^4-(5-(2-(2-aminopyridin-3-yl)-5-phenyl-31-imidazo[4,5-b]pyridin-3-yl)pyridin-2-yl)piperidine-1,4-dicarboxamide]
≥ 2 µM | < 20 µM | Nc1ncccc1-c1nc2ccc(OC(F)(F)F)cc2n1-c1ccc(NC(=O)[C@H]2CC[C@H](C(=O)O)CC2)nc1 [Compound I-123, (1r,4r)-4-((5-(2-(2-aminopyridin-3-yl)-6-(trifluoromethoxy)-1H-benzo[d]imidazol-1-yl)pyridin-2-yl)carbamoyl)cyclohexane-1-carboxylic acid]
≥ 2 µM | < 20 µM | CC(C)Oc1ccc2nc(-c3cccnc3N)n(-c3ccc(NC(=O)[C@H]4CC[C@H](C(=O)O)CC4)nc3)c2c1 [Compound I-124, (1r,4r)-4-((5-(2-(2-aminopyridin-3-yl)-6-isopropoxy-1H-benzo[d]imidazol-1-yl)pyridin-2-yl)carbamoyl)cyclohexane-1-carboxylic acid]
< 0.5 µM | < 20 µM | Cc1nc(NC(=O)C2CC3(CC(C(=O)O)C3)C2)ccc1-n1c(-c2cccnc2N)nc2ccc(-c3ccccc3)nc21 (centres unmarked) [Compound I-125, 6-((5-(2-(2-aminopyridin-3-yl)-5-phenyl-3H-imidazo[4,5-b]pyridin-3-yl)-6-methylpyridin-2-yl)carbamoyl)spiro[3.3]heptane-2-carboxylic acid]
≥ 2 µM | < 20 µM | Cc1nc(-n2c(-c3cccnc3N)nc3ccc(-c4ccccc4)nc32)ccc1NC(=O)C1CC2(CC(C(=O)O)C2)C1 (centres unmarked) [Compound I-126, 6-((6-(2-(2-aminopyridin-3-yl)-5-phenyl-3H-imidazo[4,5-b]pyridin-3-yl)-2-methylpyridin-3-yl)carbamoyl)spiro[3.3]heptane-2-carboxylic acid]
0.5 to 2 µM | < 20 µM | Cc1nc(NC(=O)[C@H]2CC[C@H](C(=O)O)CC2)ccc1-n1c(-c2cccnc2N)nc2ccc(-c3ccccc3)cc21 [Compound I-127, (1r,4r)-4-((5-(2-(2-aminopyridin-3-yl)-6-phenyl-1H-benzo[d]imidazol-1-yl)-6-methylpyridin-2-yl)carbamoyl)cyclohexane-1-carboxylic acid]

— US20260200920A1, “SUBSTITUTED AMINOPYRIDINE COMPOUNDS FOR USE AS AKT1 INHIBITORS” (Atavistik Bio, Inc., priority 2023, published 2026)
